Format: physicochemical
Method: Substances B and C Evaporation Rate at Room Temperature Substances B and C were inserted in a thermostated chamber at room temperature and the substance weight/surface ratio for both of them was evaluated. Both substances B and C, alone or in mixture with a gel, were controlled and the loss of weight versus time was recorded. The resulting data of the test were interpolated so as to obtain two algorithms indicating, respectively, the evaporation rate of B and C. To this end two different interpolation methods were used. The algorithm adopted for the first interpolation method is: po/[…] uti (1) The algorithm adopted for the second interpolation method is: po/p=(A×T1⁄2)/(T1⁄2+min uti) (2) Parameters used in algorithms (1) and (2) have the following meaning: p: initial weight of the antibacterial substances expressed in g; po: weight of the antibacterial substances at time t, expressed in g; a, b, A: correlation parameters; and T1⁄2: half-life time of the antibacterial substances.

lavender oil [C: lavender oil]
parameter T1/2 (half-life time of the antibacterial substances): 46856

silvester pine oil [B: silvester pine oil]
parameter T1/2 (half-life time of the antibacterial substances): 854737
